Results reported in patent publication US20060154243A1 (priority 2003, published 2006).

Experiments:
Assay type in all cases: binding, human
[1] = tested on: serum 1a (individual 1, early serum)
serum SARS-green = tested on: serum SARS-green
serum 2 (individual 2) = tested on: serum 2 (individual 2)
[2] = tested on: control serum Blood-bank (commercial negative donor pooled serum)
serum SARS-yellow = tested on: serum SARS-yellow
serum 62 (individual 62) = tested on: serum 62 (individual 62)
serum 37 (individual 37) = tested on: serum 37 (individual 37)
[3] = tested on: serum 1b (individual 1, late serum)
serum London = tested on: serum London
[4] = tested on: control serum LUMC (pooled serum of ten healthy hospital workers)
serum 6 (individual 6) = tested on: serum 6 (individual 6)

| Sequence | Binding of serum 1a to linear peptides of Orf14 of SARS-CoV TOR2 [1] | Binding of serum SARS-green to linear peptides of Orf14 of SARS-CoV TOR2 (serum SARS-green) | Binding of serum 2 to linear peptides of Orf14 of SARS-CoV TOR2 (serum 2 (individual 2)) | Control Serum Blood-Bank Looped peptides [2] | Control serum Blood-bank linear peptides [2] | Binding of serum SARS-yellow to linear peptides of Orf14 of SARS-CoV TOR2 (serum SARS-yellow) | Binding of serum 62 to linear peptides of Orf14 of SARS-CoV TOR2 (serum 62 (individual 62)) | Binding of serum 37 to linear peptides of Orf14 of SARS-CoV TOR2 (serum 37 (individual 37)) | Binding of serum 1b to linear peptides of Orf14 of SARS-CoV TOR2 [3] | Binding of serum London to linear peptides of Orf14 of SARS-CoV TOR2 (serum London) | Control serum LUMC linear peptides [4] | Control serum LUMC looped peptides [4] | Binding of serum 6 to linear peptides of Orf14 of SARS-CoV TOR2 (serum 6 (individual 6)) |
| --- | --- | --- | --- | --- | --- | --- | --- | --- | --- | --- | --- | --- | --- |
| TQREAEAAVKPLLAP | 0.4 | 0.3 | 0.4 | 0.8 | 0.4 | 0.2 | 0.3 | 0.4 | 0.2 | 0.4 | 0.4 | 0.7 | 0.4 |
| KPLLAPHHVVAVIQE | 0.5 | 0.3 | 0.4 | 0.6 | 0.5 | 0.4 | 0.4 | 0.6 | 0.4 | 0.4 | 0.6 | 0.6 | 0.4 |
| HVVAVIQEIQLLAAV | 0.5 | 0.1 | 0.5 | 0.6 | 0.4 | 0.4 | 0.3 | 0.6 | 0.4 | 0.4 | 0.5 | 0.4 | 0.4 |
| VVAVIQEIQLLAAVG | 0.8 | 0.5 | 0.7 | 0.5 | 1.1 | 0.4 | 0.8 | 0.6 | 0.7 | 1.0 | 1.1 | 0.4 | 1.3 |
| GEILLLEWLAEVVKL | 0.5 | 0.3 | 0.4 | 0.5 | 0.6 | 0.3 | 0.5 | 0.6 | 0.4 | 0.6 | 0.5 | 0.5 | 0.5 |
| LAPHHVVAVIQEIQL | 0.5 | 0.1 | 0.4 | 0.5 | 0.3 | 0.4 | 0.4 | 0.5 | 0.4 | 0.4 | 0.6 | 0.5 | 0.4 |
| VAVIQEIQLLAAVGE | 0.5 | 0.3 | 0.3 | 0.6 | 0.3 | 0.2 | 0.3 | 0.5 | 0.4 | 0.3 | 0.3 | 0.6 | 0.4 |
| AEAAVKPLLAPHHVV | 0.7 | 0.8 | 1.3 | 0.6 | 0.8 | 0.8 | 0.8 | 0.8 | 0.5 | 0.8 | 1.0 | 0.6 | 0.6 |
| MLPPCYNFLKEQHCQ | 0.4 | 0.2 | 0.3 | 0.7 | 0.4 | 0.2 | 0.3 | 0.5 | 0.4 | 0.4 | 0.5 | 0.6 | 0.5 |
| LLAAVGEILLLEWLA | 0.5 | 0.1 | 0.4 | 0.6 | 0.5 | 0.4 | 0.4 | 0.6 | 0.4 | 0.4 | 0.6 | 0.6 | 0.4 |
| PHHVVAVIQEIQLLA | 0.4 | 0.2 | 0.4 | 0.5 | 0.4 | 0.4 | 0.3 | 0.5 | 0.3 | 0.3 | 0.5 | 0.6 | 0.4 |
